Data: ChEMBL document CHEMBL5291721, “A preclinical secondary pharmacology resource illuminates target-adverse drug reaction associations of marketed drugs” (Nat Commun, 2023)
Several values for one entry are separate records, joined by “and”; a condition that tells them apart may be missing. Equal values may be shown once.

Columns and labels:
[1] = target: T1, Gamma-aminobutyric acid receptor subunit alpha-1/alpha-2/beta-2/gamma-2 (Homo sapiens, UniProt P14867+P18507+P47869+P47870); format: protein-complex assay
[2] = target: Gamma-aminobutyric acid receptor subunit alpha-1 (Rattus norvegicus, UniProt P62813)
[3] = target: T2, Muscarinic acetylcholine receptor M1 (Homo sapiens, UniProt P11229); format: functional, cell-based
T2 sequence (P11229 whole entry): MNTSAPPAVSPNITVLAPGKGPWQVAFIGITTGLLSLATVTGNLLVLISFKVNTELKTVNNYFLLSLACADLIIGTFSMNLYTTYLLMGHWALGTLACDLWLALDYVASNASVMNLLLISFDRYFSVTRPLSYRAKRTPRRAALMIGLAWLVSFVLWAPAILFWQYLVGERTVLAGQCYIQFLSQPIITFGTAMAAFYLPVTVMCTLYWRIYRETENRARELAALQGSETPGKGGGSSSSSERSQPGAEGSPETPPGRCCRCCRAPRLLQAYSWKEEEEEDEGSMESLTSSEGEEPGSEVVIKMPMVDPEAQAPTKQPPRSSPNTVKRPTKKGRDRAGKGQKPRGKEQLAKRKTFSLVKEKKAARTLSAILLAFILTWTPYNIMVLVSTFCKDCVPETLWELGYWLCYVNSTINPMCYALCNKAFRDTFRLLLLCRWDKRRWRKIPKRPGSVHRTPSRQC

[4] = target: T1, Gamma-aminobutyric acid receptor subunit alpha-1/alpha-2/beta-2/gamma-2; format: functional, cell-based
Progesterone receptor = target: T3, Progesterone receptor (Homo sapiens, UniProt P06401); format: functional
T3 sequence (P06401 whole entry): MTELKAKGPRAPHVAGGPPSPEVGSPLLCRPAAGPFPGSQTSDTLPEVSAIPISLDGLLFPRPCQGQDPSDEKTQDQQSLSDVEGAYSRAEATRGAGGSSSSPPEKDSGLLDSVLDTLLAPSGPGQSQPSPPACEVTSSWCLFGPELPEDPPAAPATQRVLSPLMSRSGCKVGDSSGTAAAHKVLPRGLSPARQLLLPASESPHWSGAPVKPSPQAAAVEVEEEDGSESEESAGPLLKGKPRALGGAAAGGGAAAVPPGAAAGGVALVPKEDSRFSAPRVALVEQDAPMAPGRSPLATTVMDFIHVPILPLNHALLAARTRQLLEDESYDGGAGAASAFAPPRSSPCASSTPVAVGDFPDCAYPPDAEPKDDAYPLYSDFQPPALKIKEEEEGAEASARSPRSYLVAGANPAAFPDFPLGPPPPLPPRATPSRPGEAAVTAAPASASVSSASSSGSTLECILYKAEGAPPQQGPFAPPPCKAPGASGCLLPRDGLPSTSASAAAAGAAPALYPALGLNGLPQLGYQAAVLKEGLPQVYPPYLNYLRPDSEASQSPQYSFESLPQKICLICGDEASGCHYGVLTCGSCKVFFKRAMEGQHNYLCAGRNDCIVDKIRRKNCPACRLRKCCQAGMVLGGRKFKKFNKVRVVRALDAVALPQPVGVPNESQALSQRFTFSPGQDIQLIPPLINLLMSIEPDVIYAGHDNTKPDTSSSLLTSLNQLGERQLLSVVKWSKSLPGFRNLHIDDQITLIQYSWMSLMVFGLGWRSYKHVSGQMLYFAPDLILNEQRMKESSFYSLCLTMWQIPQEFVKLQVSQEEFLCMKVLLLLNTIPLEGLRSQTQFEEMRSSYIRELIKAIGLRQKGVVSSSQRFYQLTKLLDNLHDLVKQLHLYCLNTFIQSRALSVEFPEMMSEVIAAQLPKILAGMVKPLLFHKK
Note: assay procedure not described here.

Chain of Gamma-aminobutyric acid receptor subunit alpha-1 (P62813 whole entry): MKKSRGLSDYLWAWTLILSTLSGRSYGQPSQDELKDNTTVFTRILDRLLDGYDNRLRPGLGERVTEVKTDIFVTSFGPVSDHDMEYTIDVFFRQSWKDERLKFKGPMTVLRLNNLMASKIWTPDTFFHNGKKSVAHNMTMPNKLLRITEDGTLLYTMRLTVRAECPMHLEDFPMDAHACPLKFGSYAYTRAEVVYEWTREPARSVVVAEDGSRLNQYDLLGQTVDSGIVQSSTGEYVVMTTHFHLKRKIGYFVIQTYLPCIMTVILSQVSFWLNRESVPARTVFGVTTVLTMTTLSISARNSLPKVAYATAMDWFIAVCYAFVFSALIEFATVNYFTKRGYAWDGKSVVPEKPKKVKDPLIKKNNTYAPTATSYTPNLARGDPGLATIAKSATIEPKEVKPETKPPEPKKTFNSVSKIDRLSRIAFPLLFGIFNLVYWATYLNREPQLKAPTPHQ
T1 sequence (P14867 whole entry): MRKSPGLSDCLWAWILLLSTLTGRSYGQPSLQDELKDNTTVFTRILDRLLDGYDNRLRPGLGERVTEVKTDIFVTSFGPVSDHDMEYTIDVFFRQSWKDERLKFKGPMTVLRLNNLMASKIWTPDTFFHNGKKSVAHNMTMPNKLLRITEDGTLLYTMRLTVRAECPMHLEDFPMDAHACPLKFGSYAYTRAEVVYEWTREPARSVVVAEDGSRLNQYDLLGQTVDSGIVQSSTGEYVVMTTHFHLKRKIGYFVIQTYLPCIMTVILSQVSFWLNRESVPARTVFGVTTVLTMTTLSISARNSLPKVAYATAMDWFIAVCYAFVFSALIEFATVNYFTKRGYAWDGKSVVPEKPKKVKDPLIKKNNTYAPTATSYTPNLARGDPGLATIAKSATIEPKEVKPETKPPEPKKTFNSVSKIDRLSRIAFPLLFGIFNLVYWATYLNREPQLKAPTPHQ
T1 sequence (P47870 whole entry): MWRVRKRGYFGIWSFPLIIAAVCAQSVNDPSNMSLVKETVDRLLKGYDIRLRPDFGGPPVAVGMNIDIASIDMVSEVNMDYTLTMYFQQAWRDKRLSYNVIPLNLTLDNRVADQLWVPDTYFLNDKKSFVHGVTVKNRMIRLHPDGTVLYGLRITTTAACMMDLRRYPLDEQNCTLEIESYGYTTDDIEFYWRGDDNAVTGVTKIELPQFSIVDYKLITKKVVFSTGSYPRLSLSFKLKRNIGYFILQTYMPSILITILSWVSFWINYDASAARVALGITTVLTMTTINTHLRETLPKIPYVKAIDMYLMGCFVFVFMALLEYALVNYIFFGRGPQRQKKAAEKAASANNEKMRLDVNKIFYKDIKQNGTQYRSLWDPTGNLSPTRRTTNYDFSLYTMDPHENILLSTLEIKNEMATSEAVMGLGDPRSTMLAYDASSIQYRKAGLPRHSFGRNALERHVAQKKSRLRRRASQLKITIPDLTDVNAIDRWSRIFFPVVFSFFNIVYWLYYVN
T1 sequence (P18507 whole entry): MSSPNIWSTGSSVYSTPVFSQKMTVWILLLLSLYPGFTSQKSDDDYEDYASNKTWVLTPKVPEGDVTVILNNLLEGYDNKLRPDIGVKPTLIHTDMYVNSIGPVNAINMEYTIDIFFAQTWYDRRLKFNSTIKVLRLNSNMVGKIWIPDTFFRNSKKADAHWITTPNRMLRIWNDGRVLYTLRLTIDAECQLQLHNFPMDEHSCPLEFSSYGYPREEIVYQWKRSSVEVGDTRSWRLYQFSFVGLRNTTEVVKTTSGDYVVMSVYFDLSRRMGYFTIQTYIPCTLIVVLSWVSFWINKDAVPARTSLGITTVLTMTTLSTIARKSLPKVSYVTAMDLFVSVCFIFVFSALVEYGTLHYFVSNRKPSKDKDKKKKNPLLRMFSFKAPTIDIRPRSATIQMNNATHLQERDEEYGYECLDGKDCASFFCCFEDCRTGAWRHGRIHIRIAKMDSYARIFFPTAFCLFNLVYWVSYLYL
T1 sequence (P47869 whole entry): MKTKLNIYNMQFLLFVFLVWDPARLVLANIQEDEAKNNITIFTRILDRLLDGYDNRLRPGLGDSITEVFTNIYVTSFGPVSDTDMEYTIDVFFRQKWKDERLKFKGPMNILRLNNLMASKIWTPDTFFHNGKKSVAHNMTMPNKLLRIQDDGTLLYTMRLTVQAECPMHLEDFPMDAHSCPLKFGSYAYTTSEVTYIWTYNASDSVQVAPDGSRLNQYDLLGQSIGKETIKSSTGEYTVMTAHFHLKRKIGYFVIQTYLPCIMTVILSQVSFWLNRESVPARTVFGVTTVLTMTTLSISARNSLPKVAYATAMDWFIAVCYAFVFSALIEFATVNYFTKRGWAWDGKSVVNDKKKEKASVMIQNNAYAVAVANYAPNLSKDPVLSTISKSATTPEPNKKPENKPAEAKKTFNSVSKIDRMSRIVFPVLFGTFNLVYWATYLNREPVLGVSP

## Sc1ncnc2nc[nH]c12 [MERCAPTOPURINE ANHYDROUS]
[1]
  AC50: > 30 µM

## Cc1cc(O)cc(C)c1Cl [CHLOROXYLENOL]
[1]
  AC50: > 30 µM

## O=C1c2ccccc2C(=O)C1C(=O)C(c1ccccc1)c1ccccc1 [DIPHENADIONE]
[2]
  AC50: > 30 µM
[3]
  AC50: 7.26 µM

## CCO/N=C(\C(=O)N[C@@H]1C(=O)N2C(C(=O)[O-])=C(Sc3nc(-c4cc[n+](C)cc4)cs3)CS[C@H]12)c1nsc(N)n1 [CEFTAROLINE]
[1]
  AC50: > 30 µM
[3]
  AC50: > 30 µM

## CN(C)CCCN1c2ccccc2CCc2ccc(Cl)cc21 [CLOMIPRAMINE]
[1]
  AC50: > 30 µM

## CC(C)Cc1ccc(CC(=O)O)cc1 [IBUFENAC]
[4]
  AC50: > 30 µM
Progesterone receptor
  AC50: > 30 µM

## O=C(O)c1cc(-c2ccc(F)cc2F)ccc1O [DIFLUNISAL]
Progesterone receptor
  AC50: > 10 µM

## Cc1c(-c2ccccc2)oc2c(C(=O)OCCN3CCCCC3)cccc2c1=O [FLAVOXATE]
[1]
  AC50: > 30 µM

## CC(=O)c1ccc2c(c1)N(CCCN1CCN(CCO)CC1)c1ccccc1S2 [ACETOPHENAZINE]
[4]
  AC50: > 30 µM
Progesterone receptor
  AC50: > 3 µM

## CC(C)C(=O)Nc1ccc([N+](=O)[O-])c(C(F)(F)F)c1 [FLUTAMIDE]
Progesterone receptor
  AC50: > 10 µM
[1]
  AC50: > 10 µM

## O=C1CC[C@@]2(O)[C@H]3Cc4ccc(O)c5c4[C@@]2(CCN3CC2CC2)[C@H]1O5 [NALTREXONE]
[1]
  AC50: > 30 µM
[2]
  AC50: > 30 µM

## CCC(=O)c1c(O)cc(O)cc1O [FLOPROPIONE]
[1]
  AC50: > 30 µM
[3]
  AC50: > 30 µM

## CN1C(=O)CC(C)(c2ccccc2)C1=O (stereo not given) [METHSUXIMIDE]
Progesterone receptor
  AC50: > 10 µM

## CC(=O)OC[C@H]1O[C@@H](n2ccc(=O)[nH]c2=O)[C@H](OC(C)=O)[C@@H]1OC(C)=O [URIDINE TRIACETATE]
[2]
  AC50: > 30 µM
[3]
  AC50: > 30 µM

## CC(N/C(=N\C#N)Nc1ccncc1)C(C)(C)C (stereo not given) [PINACIDIL ANHYDROUS]
[1]
  AC50: > 30 µM
[3]
  AC50: > 30 µM

## NC[C@H]1CC[C@H](C(=O)O)CC1 [TRANEXAMIC ACID]
Progesterone receptor
  AC50: > 10 µM

## Cc1cc2c(cc1CC(=O)c1sccc1S(=O)(=O)Nc1onc(C)c1Cl)OCO2 [SITAXENTAN]
[2]
  AC50: > 30 µM

## O=C1[C@H](CC[C@H](O)c2ccc(F)cc2)[C@@H](c2ccc(O)cc2)N1c1ccc(F)cc1 [EZETIMIBE]
[1]
  AC50: > 10 µM
[3]
  AC50: > 30 µM

## Cc1ccc(O)c2ncccc12 [TILIQUINOL]
[2]
  AC50: > 30 µM
[3]
  AC50: > 30 µM

## OCCN1CCN(CCCN2c3ccccc3C=Cc3ccccc32)CC1 [OPIPRAMOL]
[4]
  AC50: > 30 µM
Progesterone receptor
  AC50: > 30 µM
[2]
  AC50: > 30 µM
[3]
  AC50: > 30 µM

## CC[C@H](C)C(=O)O[C@H]1C[C@H](O)C=C2C=C[C@H](C)[C@H](CC[C@@H](O)C[C@@H](O)CC(=O)O)[C@H]21 [PRAVASTATIN]
[4]
  AC50: > 30 µM
Progesterone receptor
  AC50: > 30 µM

## O=C1c2c(O)c(=O)ccn2N([C@@H]2c3ccccc3SCc3c2ccc(F)c3F)[C@@H]2COCCN12 [BALOXAVIR]
[2]
  AC50: > 30 µM
[3]
  AC50: > 30 µM

## CN1CCCC(CN2c3ccccc3Sc3ccccc32)C1 (stereo not given) [MEPAZINE]
[2]
  AC50: > 30 µM

## OC[C@@H](O)[C@@H](O)[C@H](O)[C@H](O)CO [MANNITOL]
[1]
  AC50: > 30 µM
[2]
  AC50: > 30 µM

## CNC(=O)c1cc(Oc2ccc(NC(=O)Nc3ccc(Cl)c(C(F)(F)F)c3)cc2)ccn1 [SORAFENIB]
Progesterone receptor
  AC50: > 30 µM

## C#C[C@]1(O)CC[C@H]2[C@@H]3CCC4=CC(=O)CC[C@@H]4[C@H]3CC[C@@]21CC [LEVONORGESTREL]
[1]
  AC50: > 30 µM
[2]
  AC50: 3.44 µM

## CC(C(=O)O)c1ccc(C(=O)c2cccs2)cc1 (stereo not given) [SUPROFEN]
Progesterone receptor
  AC50: > 10 µM

## CS(=O)(=O)c1ccc([C@@H](O)[C@@H](CO)NC(=O)C(Cl)Cl)cc1 [THIAMPHENICOL]
Progesterone receptor
  AC50: > 30 µM
[2]
  AC50: > 30 µM

## Cc1cccc(C)c1OCC(C)N (stereo not given) [MEXILETINE]
Progesterone receptor
  AC50: > 30 µM

## C[C@@H]1O[C@@H]1P(=O)(O)O [FOSFOMYCIN]
Progesterone receptor
  AC50: > 30 µM

## CCOC(=O)c1ccc(O)cc1 [ETHYLPARABEN]
[1]
  AC50: > 30 µM
[3]
  AC50: > 30 µM

## CC(C)NNC(=O)c1ccncc1 [IPRONIAZID]
[4]
  AC50: > 30 µM
Progesterone receptor
  AC50: > 30 µM

## COC(=O)N[C@H](C(=O)N[C@@H](Cc1ccccc1)[C@@H](O)CN(Cc1ccc(-c2ccccn2)cc1)NC(=O)[C@@H](NC(=O)OC)C(C)(C)C)C(C)(C)C [ATAZANAVIR]
Progesterone receptor
  AC50: > 30 µM

## C[N+](C)(C)CCCCCCCCCC[N+](C)(C)C [DECAMETHONIUM]
[1]
  AC50: > 30 µM
[3]
  AC50: > 30 µM

## CO/N=C(\C(=O)N[C@@H]1C(=O)N2C(C(=O)[O-])=C(C[N+]3(C)CCCC3)CS[C@H]12)c1csc(N)n1
[4]
  AC50: > 2400 µM
Progesterone receptor
  AC50: > 30 µM and 140 µM

## CC(C)OC(=O)[C@H](C)N[P@](=O)(OC[C@H]1O[C@@H](n2ccc(=O)[nH]c2=O)[C@](C)(F)[C@@H]1O)Oc1ccccc1 [SOFOSBUVIR]
[1]
  AC50: > 30 µM
[3]
  AC50: > 30 µM

## C[N+]1(C)[C@@H]2C[C@@H](OC(=O)[C@H](CO)c3ccccc3)C[C@H]1[C@@H]1O[C@@H]12 [METHSCOPOLAMINE]
[1]
  AC50: > 30 µM

## CN1CCCC(n2nc(Cc3ccc(Cl)cc3)c3ccccc3c2=O)CC1 (stereo not given) [AZELASTINE]
[4]
  AC50: > 30 µM
Progesterone receptor
  AC50: > 30 µM

## NC[C@H]1O[C@H](O[C@H]2[C@H](O)[C@@H](O[C@H]3O[C@H](CO)[C@@H](O)[C@H](N)[C@H]3O)[C@H](N)C[C@@H]2N)[C@H](O)[C@@H](O)[C@@H]1O [KANAMYCIN]
Progesterone receptor
  AC50: > 10 µM

## COC(=O)C1=C(C)NC(C)=C(C(=O)OCC(C)C)C1c1ccccc1[N+](=O)[O-] (stereo not given) [NISOLDIPINE]
Progesterone receptor
  AC50: 4.9 µM

## O=C(COc1ccc(Cl)cc1)N1CCN(Cc2ccc3c(c2)OCO3)CC1 [FIPEXIDE]
[1]
  AC50: > 30 µM
[3]
  AC50: > 30 µM

## CC(=O)Oc1c(C)cc(OCC(O)CNC(C)C)c(C)c1C (stereo not given) [METIPRANOLOL]
[1]
  AC50: > 30 µM
[2]
  AC50: > 30 µM
[3]
  AC50: > 30 µM

## CC1(C)O[C@@H]2C[C@H]3[C@@H]4C[C@H](F)C5=CC(=O)CC[C@]5(C)[C@H]4[C@@H](O)C[C@]3(C)[C@]2(C(=O)CO)O1 [FLURANDRENOLIDE]
[1]
  AC50: > 30 µM

## CC(C)(C(=O)c1cccnc1)c1cccnc1 [METYRAPONE]
Progesterone receptor
  AC50: > 10 µM

## CC(=O)OCC(=O)[C@@]1(O)CC[C@H]2[C@@H]3CCC4=CC(=O)CC[C@]4(C)[C@H]3C(=O)C[C@@]21C [CORTISONE ACETATE]
[4]
  AC50: > 30 µM
[2]
  AC50: > 30 µM

## NC(=O)c1ncn([C@@H]2O[C@H](CO)[C@@H](O)[C@H]2O)c1O [MIZORIBINE]
[4]
  AC50: > 30 µM
Progesterone receptor
  AC50: > 30 µM

## COc1ccc2c(c1)C(=O)N(CCc1ccc(S(=O)(=O)NC(=O)NC3CCCCC3)cc1)C(=O)C2(C)C [GLIQUIDONE]
Progesterone receptor
  AC50: > 30 µM

## CN(C)C(=O)Oc1ccc[n+](C)c1 [PYRIDOSTIGMINE]
[1]
  AC50: > 30 µM
[3]
  AC50: > 30 µM

## C(=N\NC1=NCCN1)/c1c2ccccc2c(/C=N/NC2=NCCN2)c2ccccc12 [BISANTRENE]
[2]
  AC50: > 30 µM
[3]
  AC50: > 10 µM

## OCc1cc([C@@H](O)CNCCCCCCOCCOCc2c(Cl)cccc2Cl)ccc1O [VILANTEROL]
[4]
  AC50: > 30 µM
Progesterone receptor
  AC50: > 30 µM

## Cc1ccc(C(=O)c2cc(O)c(O)c([N+](=O)[O-])c2)cc1 [TOLCAPONE]
Progesterone receptor
  AC50: 1.09 µM

## N[C@@H](C(=O)N[C@@H]1C(=O)N2C(C(=O)O)=C(Cl)CS[C@H]12)c1ccccc1 [CEFACLOR ANHYDROUS]
[4]
  AC50: > 30 µM
Progesterone receptor
  AC50: > 30 µM

## CC(O)CO (stereo not given) [PROPYLENE GLYCOL]
[1]
  AC50: > 30 µM

## CCC(=O)O[C@H]1[C@H](O[C@@H]2[C@@H](C)[C@H](O[C@H]3C[C@@](C)(OC)[C@@H](O)[C@H](C)O3)[C@@H](C)C(=O)O[C@H](CC)[C@@](C)(O)[C@H](O)[C@@H](C)C(=O)[C@H](C)C[C@@]2(C)O)O[C@H](C)C[C@@H]1N(C)C [ERYTHROMYCIN PROPIONATE]
[2]
  AC50: > 30 µM

## CCOC(=O)N[C@@H]1CC[C@@H]2[C@@H](C1)C[C@H]1C(=O)O[C@H](C)[C@H]1[C@H]2/C=C/c1ccc(-c2cccc(F)c2)cn1 [VORAPAXAR]
[1]
  AC50: > 30 µM
[3]
  AC50: > 30 µM
